Patent US20100196290A1, “COMPOSITIONS COMPRISING BETULONIC ACID” (Valtion teknillinen tutkimuskeskus, priority 2006, published 2010)

Tests used:
Caco-2 cells = assay: Cytotoxicity tests, viability of Caco-2 cells (LDH, WST-1 and ATP methods); assay type: cell-based, human; conditions: 500 μM, exposure 24 hours
Method: Caco-2 cells (cell line used as a model for human intestine) were introduced in a 96 well plate in an amount of 35 000 cells (for LDH method), 45 000 cells (for WST-1 method), or 25 000 cells (for ATP method) per well. After cultivation of 24 hours, the cells were exposed to the compounds being tested for 24 hours by adding said compounds to the culture medium to give a concentration of 500 μM (as stock solutions in DMSO).
The influence of the compounds on the viability of the cells was measured by three different methods. Polymyxin B was used as the control. […] The amount of LDH in the sample due to exposure was quantified by means of an enzymatic reaction using the INT (iodonitrotetrazolium) colour reagent wherein the coloured reaction product formed was determined photometrically at 490 nm. In the WST-1 method, the metabolic activity of the cells after exposure was measured using the WST-1 reagent. Metabolic activity of a cell results in the generation of a coloured product from the reagent, said product being then used to evaluate the viability of the cells by photometric measurements (absorbance at 440 nm). In the ATP method, the amount of ATP within cells decreasing rapidly due to cellular damage was measured. In the method, ATP was luminometrically quantified by means of the ATP dependent luciferase-luciferin reaction. […]

bacteria = assay: Antibacterial activity, overall statement on the examples; assay type: cell-based; conditions: concentration of 1 μg/ml
Text: Erythromycin was used as the control.

Row | SMILES | cytotoxicity (Caco-2 cells) | antibacterial activity (bacteria)
1 | C=C(C)[C@@H]1CC[C@]2(C(=O)O)CC[C@]3(C)[C@H](CC[C@@H]4[C@@]5(C)CCC(=O)C(C)(C)[C@@H]5CC[C@]43C)[C@@H]12 [Yhdiste 5, betulonic acid] | low cytotoxicity | considerable antibacterial activity
2 | C=C(C)[C@@H]1CC[C@]2(COC(=O)c3ccccc3NC(C)=O)CC[C@]3(C)C(CCC4[C@@]5(C)CC[C@H](O)C(C)(C)C5CC[C@]43C)C12 (stereo partly drawn) [Yhdiste 29, 28-N-acetylanthranilic acid ester of betulin] | – | considerable antibacterial activity
